{
  "source": "patent US20200405868A1",
  "about": "“GEL-FORMING POLYPEPTIDES” (priority 2018, published 2020)",
  "key": {"[1]": {"test": "Compound gel-forming ability in water (visual inspection, tube tapping assay, tilted tube assay);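 also: peptides mixed with de-ionized water at about 22-25 °C, judged after 20 min by eye plus tube tapping (10 taps, moves counted) and 90° tilt mobility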", "type": "physicochemical"}, "[2]": {"biological_target": "kappa opioid receptor (OPRK1) (Homo sapiens, UniProt P41145)", "sequence (P41145 whole entry)": "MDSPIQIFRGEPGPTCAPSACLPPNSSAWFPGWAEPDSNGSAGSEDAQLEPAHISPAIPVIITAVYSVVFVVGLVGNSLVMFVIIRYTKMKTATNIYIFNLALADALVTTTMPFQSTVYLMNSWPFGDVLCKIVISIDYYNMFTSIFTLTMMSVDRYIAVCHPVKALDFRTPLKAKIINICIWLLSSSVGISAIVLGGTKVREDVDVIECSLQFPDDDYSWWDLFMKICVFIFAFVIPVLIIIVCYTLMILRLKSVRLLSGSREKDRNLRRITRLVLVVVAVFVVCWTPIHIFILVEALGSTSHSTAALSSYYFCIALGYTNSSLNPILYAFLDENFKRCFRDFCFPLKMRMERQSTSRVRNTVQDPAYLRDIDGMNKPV", "test": "OPRK1 cAMP assay (Discoverx), agonistic", "type": "cell-based", "procedure": "The agonistic activities toward MC1R, MC4R, CRHR2, PTHR1, and OPRK1 were assyed with an MC1R cAMP assay, an MC4R cAMP assay, a CRHR2 cAMP assay, a PTHR1 cAMP assay and an OPRK1 cAMP assay from Discoverx Inc. (Fremont, Calif.), respectively. The antagonistic activities toward bradykinin receptor 2 (BDKRB2) and GnRH receptor (GnRHR or LHRHR) were assayed with a BDKRB2 arrestin assay and a GnRHR calcium flux assay from Discoverx, respectively.\nFor the analysis of Gs-coupled cAMP production, cAMP Hunter cell lines were expanded from freezer stocks, and cells were seeded in a total volume of 20 μL into white walled, 384-well microplates and incubated at 37 C for the appropriate time prior to testing. The cAMP modulation was determined using the DiscoverX HitHunter cAMP XS+ assay. For agonistic activity determination, cells were incubated with sample to induce response. Media was aspirated from cells and replaced with 15 μL 2:1 HBSS/10 mM Hepes: cAMP XS+ Ab reagent. […] The compound activity was analyzed using a CBIS data analysis suite (ChemInnovation, CA). For Gs-coupled agonistic assays, percentage activity is calculated using the following formula: % Activity=100%×(mean RLU of test sample−mean RLU of vehicle control)/(mean RLU of MAX control−mean RLU of vehicle control)."}},
  "note": "Where a SMILES comes first, the peptide text is derived from it. [ ]: non-standard residue; d: D form. The star is where a group is joined. Palmitoyl = CCCCCCCCCCCCCCCC(=O)*; AEEA = NCCOCCOCC(=O)O",
  "data": [
    {"smiles": "CCCCCCCCCCCCCCCC(=O)N[C@@H](CO)C(=O)N[C@@H](CO)C(=O)N1CCC[C@H]1C(=O)N[C@@H](Cc1c[nH]cn1)C(=O)N[C@@H](CO)C(=O)N[C@@H](Cc1ccc(O)cc1)C(=O)NCCOCCOCC(=O)N[C@H](Cc1ccccc1)C(=O)N[C@H](Cc1ccccc1)C(=O)N[C@@H](Cc1c[nH]c2ccccc12)C(=O)N[C@H](CCCNC(=N)N)C(=O)O", "note": "[SEQ ID NO:214, Pal-SSPHSY-miniPEG-(D-Phe)-(D-Phe)-Trp-(D-Arg)] (Palmitoyl-SSPHSY[AEEA][dF][dF]W[dR]-OH; N-terminus and C-terminus assumed)", "values": [
      {"measurement": "gel formation at 3% w/w", "setting": "[1]; 3% w/w in water", "value": "liquid gel"},
      {"measurement": "gel formation at 6% w/w", "setting": "[1]; 6% w/w in water", "value": "semisolid gel"},
      {"measurement": "gel formation at 11% w/w", "setting": "[1]; 11% w/w in water", "value": "semisolid gel"},
      {"measurement": "gel formation in aqueous solution, 6%", "setting": "[1]; Table 3, 6% w/w", "value": "SS (SS for semisolid gel)"},
      {"measurement": "gel formation in aqueous solution, 11%", "setting": "[1]; Table 3, 11% w/w", "value": "SS (SS for semisolid gel)"},
      {"measurement": "propensity to form gels, chimeric or mutated polypeptides, 6%", "setting": "[1]; Table 5, 6% w/w", "value": "SS (An ability to form semisolid gel is represented by an SS)"},
      {"measurement": "propensity to form gels, chimeric or mutated polypeptides, 11%", "setting": "[1]; Table 5, 11% w/w", "value": "SS (An ability to form semisolid gel is represented by an SS)"},
      {"measurement": "Max Activity % of positive control", "setting": "[2]", "value": "62 % of positive control"}
    ]}
  ]
}
